Experiments:
[1] = molecular target: T1, Baculoviral IAP repeat-containing protein 2 (Homo sapiens, UniProt Q13490)
[2] = molecular target: E3 ubiquitin-protein ligase XIAP (Homo sapiens, UniProt P98170); test: Binding affinity to His6-tagged human XIAP BIR3 domain expressed in Escherichia coli BL21(DE3) assessed as dissociation constant after 2 to 3 hrs by fluorescence polarization assay
[3] = molecular target: T1, Baculoviral IAP repeat-containing protein 2; test: Binding affinity to human cIAP1 BIR3 domain expressed in Escherichia coli BL21(DE3) assessed as dissociation constant after 2 to 3 hrs by fluorescence polarization assay
Mus musculus [4] = test: AUC (0 to t) in mouse at 10 mg/kg, iv; type: ADME, organism-based, Plasma; set-up: dose 10 mg/kg, route intravenous; settings: in vivo
Mus musculus [5] = test: AUC (0 to t) in mouse at 30 mg/kg, po; type: ADME, organism-based, Plasma; set-up: dose 30 mg/kg, route oral; settings: in vivo
Mus musculus [6] = test: Half life in mouse at 10 mg/kg, iv; type: ADME, organism-based; set-up: dose 10 mg/kg, route intravenous; settings: in vivo
Mus musculus [7] = test: Half life in mouse at 30 mg/kg, po; type: ADME, organism-based; set-up: dose 30 mg/kg, route oral; settings: in vivo
Mus musculus [8] = test: Oral bioavailability in mouse at 30 mg/kg; type: ADME, organism-based; settings: in vivo
Rattus norvegicus [9] = test: AUC (0 to t) in Sprague-Dawley rat at 25 mg/kg, po; type: ADME, organism-based, Plasma; set-up: dose 25 mg/kg, route oral; settings: in vivo
Rattus norvegicus [10] = test: Half life in Sprague-Dawley rat at 5 mg/kg, iv; type: ADME, organism-based; set-up: dose 5 mg/kg, route intravenous; settings: in vivo
Rattus norvegicus [11] = test: Half life in Sprague-Dawley rat at 25 mg/kg, po; type: ADME, organism-based; set-up: dose 25 mg/kg, route oral; settings: in vivo
Rattus norvegicus [12] = test: Oral bioavailability in Sprague-Dawley rat at 25 mg/kg; type: ADME, organism-based; settings: in vivo
Cynomolgus monkey [13] = test: AUC (0 to t) in cynomolgus monkey at 2.5 mg/kg, iv; type: ADME, organism-based, Macaca fascicularis, Plasma; set-up: dose 2.5 mg/kg, route intravenous; settings: in vivo
Cynomolgus monkey [14] = test: AUC (0 to t) in cynomolgus monkey at 5 mg/kg, po; type: ADME, organism-based, Macaca fascicularis, Plasma; set-up: dose 5 mg/kg, route oral; settings: in vivo
Cynomolgus monkey [15] = test: Half life in cynomolgus monkey at 2.5 mg/kg, iv; type: ADME, organism-based, Macaca fascicularis; set-up: dose 2.5 mg/kg, route intravenous; settings: in vivo
Cynomolgus monkey [16] = test: Half life in cynomolgus monkey at 5 mg/kg, po; type: ADME, organism-based, Macaca fascicularis; set-up: dose 5 mg/kg, route oral; settings: in vivo
Cynomolgus monkey [17] = test: Oral bioavailability in cynomolgus monkey at 5 mg/kg; type: ADME, organism-based, Macaca fascicularis; settings: in vivo
Canis familiaris [18] = test: AUC (0 to t) in beagle dog at 5 mg/kg, iv; type: ADME, organism-based, Canis lupus familiaris, Plasma; set-up: dose 5 mg/kg, route intravenous; settings: in vivo
Canis familiaris [19] = test: AUC (0 to t) in beagle dog at 10 mg/kg, po; type: ADME, organism-based, Canis lupus familiaris, Plasma; set-up: dose 10 mg/kg, route oral; settings: in vivo
Canis familiaris [20] = test: Half life in beagle dog at 5 mg/kg, iv; type: ADME, organism-based, Canis lupus familiaris; set-up: dose 5 mg/kg, route intravenous; settings: in vivo
Canis familiaris [21] = test: Half life in beagle dog at 10 mg/kg, po; type: ADME, organism-based, Canis lupus familiaris; set-up: dose 10 mg/kg, route oral; settings: in vivo
Canis familiaris [22] = test: Oral bioavailability in beagle dog at 10 mg/kg; type: ADME, organism-based, Canis lupus familiaris; settings: in vivo

T1 sequence (Q13490 whole entry, the tested form may be a part): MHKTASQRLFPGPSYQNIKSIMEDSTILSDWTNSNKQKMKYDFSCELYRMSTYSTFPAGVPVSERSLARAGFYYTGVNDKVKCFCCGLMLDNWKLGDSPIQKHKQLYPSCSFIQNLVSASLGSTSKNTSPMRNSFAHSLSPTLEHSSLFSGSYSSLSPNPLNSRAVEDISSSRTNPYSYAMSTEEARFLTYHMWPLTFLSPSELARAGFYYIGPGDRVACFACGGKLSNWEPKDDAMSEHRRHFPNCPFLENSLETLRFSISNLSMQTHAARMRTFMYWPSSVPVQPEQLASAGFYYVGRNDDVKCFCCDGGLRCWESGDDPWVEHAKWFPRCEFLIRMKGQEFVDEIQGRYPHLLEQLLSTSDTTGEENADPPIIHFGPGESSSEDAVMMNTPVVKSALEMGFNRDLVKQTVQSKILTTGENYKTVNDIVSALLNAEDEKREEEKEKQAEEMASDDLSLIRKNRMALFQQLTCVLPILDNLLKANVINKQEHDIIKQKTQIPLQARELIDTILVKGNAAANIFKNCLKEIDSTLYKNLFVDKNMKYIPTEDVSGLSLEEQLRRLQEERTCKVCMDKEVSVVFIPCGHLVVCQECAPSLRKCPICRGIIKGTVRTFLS
Chain of E3 ubiquitin-protein ligase XIAP (P98170 whole entry, the tested form may be a part): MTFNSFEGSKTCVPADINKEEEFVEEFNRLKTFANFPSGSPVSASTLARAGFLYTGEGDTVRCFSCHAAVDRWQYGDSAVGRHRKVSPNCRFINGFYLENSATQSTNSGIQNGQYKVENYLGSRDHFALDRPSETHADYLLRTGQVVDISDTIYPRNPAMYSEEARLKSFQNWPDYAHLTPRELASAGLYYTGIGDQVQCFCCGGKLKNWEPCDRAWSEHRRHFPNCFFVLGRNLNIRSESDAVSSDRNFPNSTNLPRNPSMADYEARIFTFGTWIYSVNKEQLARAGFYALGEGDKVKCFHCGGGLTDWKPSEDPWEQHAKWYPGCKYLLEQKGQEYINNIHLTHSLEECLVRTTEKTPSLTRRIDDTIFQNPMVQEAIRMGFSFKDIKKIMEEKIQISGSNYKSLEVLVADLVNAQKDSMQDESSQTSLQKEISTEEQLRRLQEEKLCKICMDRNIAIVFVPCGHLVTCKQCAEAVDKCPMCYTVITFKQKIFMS

Structure (SMILES): CN[C@@H](C)C(=O)N[C@H]1CN(C(=O)CC(C)C)CC[C@H]2CC[C@@H](C(=O)N[C@@H](c3ccccc3)c3cn(CCCCCCCCCCNC(=O)CCCCCNC(=O)CCCC[C@@H]4SC[C@@H]5NC(=O)N[C@@H]54)nn3)N2C1=O
- Ki [1]: < 1 nM

Structure (SMILES): CN[C@@H](C)C(=O)N[C@H]1CN(C(=O)CC(C)C)CC[C@H]2CC[C@@H](C(=O)N[C@@H](c3ccccc3)c3cn(CCCCCCCCCCNC(=O)c4ccc(-c5c6ccc(=O)cc-6oc6cc(O)ccc56)c(C(=O)O)c4)nn3)N2C1=O
- Kd [2]: 4.4 nM
- Kd [3]: 0.7 nM

Structure (SMILES): CN[C@@H](C)C(=O)N[C@H]1CN(C(=O)CC(C)C)CC[C@H]2CC[C@@H](C(=O)NC(c3ccccc3)c3ccccc3)N2C1=O.Cl
- AUCt (Mus musculus [4]): 3800 ng·h/mL
- AUCt (Mus musculus [5]): 4300 ng·h/mL
- t1/2 (Mus musculus [6]): 3 h
- t1/2 (Mus musculus [7]): 2.3 h
- F (Mus musculus [8]): 38%
- AUCt (Rattus norvegicus [9]): 2300 ng·h/mL
- t1/2 (Rattus norvegicus [10]): 1.4 h
- t1/2 (Rattus norvegicus [11]): 1.8 h
- F (Rattus norvegicus [12]): 45%
- AUCt (Cynomolgus monkey [13]): 17900 ng·h/mL
- AUCt (Cynomolgus monkey [14]): 13500 ng·h/mL
- t1/2 (Cynomolgus monkey [15]): 6.3 h
- t1/2 (Cynomolgus monkey [16]): 5.4 h
- F (Cynomolgus monkey [17]): 42%
- AUCt (Canis familiaris [18]): 81600 ng·h/mL
- AUCt (Canis familiaris [19]): 90300 ng·h/mL
- t1/2 (Canis familiaris [20]): 16.3 h
- t1/2 (Canis familiaris [21]): 27.1 h
- F (Canis familiaris [22]): 55%
